The test system of data set [1] is CD19-positive Ramos human tumor cells. Description: MTT-based cytotoxicity of huB4-DM4, Ramos cells. The format is cell-based. The conditions noted are these: MTT-based assay, FIG. 12. The procedure: (§1) The cytotoxicity of huB4-DM4 toward CD19-expressing cells (Ramos) compared to a CD19-negative cell line (Colo 205) was tested using an MTT-based assay, where cell killing activity is determined by quantifying the number of viable cells that remain following treatment with conjugate. Viable cell number is determined by spectrophotometric quantitation following incubation of the cells with the vital dye MTT.

Data set [2] relates to CD19-negative cell line (Colo 205). The data set is described as follows: MTT-based cytotoxicity of huB4-DM4, Colo 205 cells. The format is cell-based, human. Conditions: MTT-based assay, non-target Colo 205 cells, FIG. 12. The procedure:
as §1

Data set [3] deals with human Ramos tumor xenografts. The data set is described as follows: In vivo efficacy of huB4-DM4 against Ramos xenografts in SCID mice. On the set-up: species or system mouse. As to the method: The efficacy of huB-DM4 in vivo was determined using SCID mice bearing established human Ramos tumor xenografts. Ramos cells were injected subcutaneously and tumors were allowed to grow to an average size of 100 mm^3. Dosage is expressed as μg DM4 in the conjugate, which corresponds to an antibody dose of approximately 44 μg antibody per μg of DM4. Tumor volume was measured as an indication of treatment efficacy and mouse body weight was monitored to indicate toxicity due to treatment. […] Animals remain without measurable disease for about 35 days in the […] treatment group, and for more than 55 days in the two highest dose groups.

The target in the next data set is T1, CD19 (Homo sapiens, UniProt P15391).
T1 sequence (P15391 20-556): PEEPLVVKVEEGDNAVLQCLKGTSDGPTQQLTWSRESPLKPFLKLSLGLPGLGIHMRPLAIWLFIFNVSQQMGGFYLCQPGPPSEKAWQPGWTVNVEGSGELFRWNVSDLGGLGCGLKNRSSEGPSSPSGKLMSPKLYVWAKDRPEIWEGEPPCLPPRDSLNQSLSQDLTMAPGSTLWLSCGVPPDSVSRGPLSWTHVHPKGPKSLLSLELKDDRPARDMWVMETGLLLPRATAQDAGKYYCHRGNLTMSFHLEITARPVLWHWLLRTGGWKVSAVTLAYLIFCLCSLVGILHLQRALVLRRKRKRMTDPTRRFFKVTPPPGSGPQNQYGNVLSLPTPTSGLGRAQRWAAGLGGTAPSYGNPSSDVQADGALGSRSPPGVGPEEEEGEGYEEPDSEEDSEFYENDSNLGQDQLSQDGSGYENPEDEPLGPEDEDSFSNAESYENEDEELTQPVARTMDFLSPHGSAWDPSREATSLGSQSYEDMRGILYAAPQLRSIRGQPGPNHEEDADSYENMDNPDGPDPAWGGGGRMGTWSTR
Description: Binding affinity of huB4 conjugate by flow cytometry. The conditions noted are these: after conjugation. As to the method:
A solution of huB4 antibody at a concentration of 20 mg/mL was incubated for 1.5 h with an 8-fold molar excess of SSNPB [sulfosuccinimidyl 4-(5′-nitro-2′-pyridyldithio)butyrate] in 50 mM potassium phosphate buffer, pH 6.5 containing 2 mM ethylenediaminetetraacetic acid (buffer A) with 5% dimethylacetamide. The modified antibody was purified by passage through a Sephadex G25 gel filtration column equilibrated in buffer A and the concentration of the purified antibody was determined spectrophotometrically using the extinction coefficient for the antibody at 280 nm (199,560 M^−1 cm^−1). The modified antibody was diluted to 8 mg/mL with buffer A and incubated for 3 h at ambient temperature with a 1.7-fold molar excess of DM4, which was added to the reaction mixture as a stock solution in dimethylacetamide (final concentration of dimethylacetamide was 3% v/v). […] The concentration of conjugate was determined spectrophotometrically using the know extinction coefficients for antibody (ε280 nm: 199,560 M^−1 cm^−1; ε252 nm: 67,850 M^−1 cm^−1) and DM4 (ε280 nm=5,700 M^−1 cm^−1, ε252 […]=26,790 M^−1 cm^−1). […] The amount of drug associated with the antibody that was not linked covalently (free drug) was determined by HPLC analysis and was approximately 2% of the total linked drug.
For orientation: A flow cytometer gives signals particle by particle.

Take “huB4-DM4: huB4 (anti-CD19) antibody modified with SSNPB and linked to DM4, average of 4.0 DM4 molecules per antibody molecule”: in data set [1], the “cell killing activity toward Ramos cells” value is reported as “potent cell killing activity”. Moreover, in data set [2], the “toxicity toward CD19-negative cells” value is “No significant toxicity”. Further, in data set [3] (SCID mice, single i.v. injection, FIG. 13b), the “toxicity as judged by changes in body weight” value is on record as “very little if any toxicity”. Moreover, the tumor response entry in data set [3] (SCID mice, single i.v. injection, doses above 50 μg/kg) is “complete regression of the tumors in all animals”; in data set [3] (subcutaneous Ramos tumor model, doses that are non-toxic, FIG. 13a,b), “Complete tumor regressions and cures”. For the same substance, the “time without measurable disease” value in data set [3] (single i.v. injection, 100 mg/kg treatment group) was “about 35 days”; in data set [3] (single i.v. injection, two highest dose groups) it was “more than 55 days”. In addition, the anti-tumor activity entry in data set [3] (subcutaneous Ramos tumor model, FIG. 13a) was “high anti-tumor activity in a dose-dependent manner”. The “binding affinity compared with unmodified antibody” value with CD19 was “comparable to the unmodified antibody”.

The record behind these values is patent US8841425B2, “Cytotoxic agents comprising new maytansinoids” (ImmunoGen, Inc., priority 2003, dated 2014).
